Data published in ChEMBL document CHEMBL1152704, “Synthesis and structure-function analysis of Fe(II)-form-selective antibacterial inhibitors of Escherichia coli methionine aminopeptidase” (Bioorg Med Chem Lett, 2009).
≈ marks a conversion by molar mass, not a printed value.

Key:
[1] = Inhibition of ferrous-activated Escherichia coli MetAP
[2] = Inhibition of mangnese-activated Escherichia coli MetAP
[3] = Inhibition of cobalt-activated Escherichia coli MetAP
[4] = system: Escherichia coli; assay: Antibacterial activity against Escherichia coli AS19; format: functional, organism-based

Compound	IC50 [1] [µM]	IC50 [2] [µM]	IC50 [3] [µM]	IC50 [4] [µM]	MIC [4] [mg/L]
COc1cnc(-c2cccc(O)c2O)o1	11.2	> 100	> 100	228	164 (≈ 792 µM)
Oc1ccc(-c2ncc(F)cn2)cc1O	10.6	> 100	52.6	206	80 (≈ 388 µM)
O=C(NC1CCCC1)c1ccc(-c2ccc(O)c(O)c2)o1	0.9	11.8	30.1	23.4	19 (≈ 66.1 µM)
O=C(NC1CCCC1)c1ncoc1-c1cccc(O)c1O	11	> 100	> 100	165	199 (≈ 690 µM)
O=C(NC1CCC1)c1ccc(-c2ccc(O)c(O)c2)o1	1.2	7.9	22.5	43.9	29 (≈ 106 µM)
Oc1ccc(-c2cn(Cc3ccccc3)nn2)cc1O	16.1	19.5	24.6	97.7	79 (≈ 296 µM)
C=CCCNC(=O)c1ncoc1-c1cccc(O)c1O	13.4	> 100	> 100	97.2	99 (≈ 361 µM)
Oc1ccc(-c2ncccn2)cc1O	25.5	> 100	> 100	> 250	
C=CCCNC(=O)c1ccc(-c2ccc(O)c(O)c2)o1	1	6.7	21.2	50.8	39 (≈ 143 µM)
O=C(NC1CC1)c1ccc(-c2ccc(O)c(O)c2)o1	14.8	> 100	> 100	55	26 (≈ 100 µM)
Cn1ccnc1-c1ccc(O)c(O)c1	> 100	> 100	> 100	> 250	
Oc1ccc(-c2ccccn2)cc1O	19.3	> 100	> 100	211	106 (≈ 566 µM)
COC(=O)c1ncoc1-c1cccc(O)c1O	14	> 100	> 100	120	99 (≈ 421 µM)
